# Laboratory results reported in patent US5008187A, “Antifungal fermentation product” (Merck & Co., Inc., priority 1988, dated 1991).
# “Also recorded” adds a separate entry of the source.
# Key:
# A. flavus = experiment: agar dilution MIC; format: cell-based; conditions: strain MF383, yeast nitrogen base agar
# Protocol: (§1) Minimum inhibiting concentration against representative fungal organisms may be seen in the results of tests carried out by the agar dilution method in which an aqueous suspension of the metabolite was solubilized by adding a small amount of methanol. Further dilutions were made employing water. The diluted samples were added to molten agar to produce final concentrations of 512 μg/ml and lower. The molten agar was yeast nitrogen base agar prepared by adding 1 part of sterile yeast nitrogen base agar to 9 parts 2% Difco agar.
# Aspergillus fumigatus = experiment: agar dilution MIC; format: cell-based; conditions: strain MF4839, yeast nitrogen base agar
# Protocol: as §1
# Aspergillus niger = experiment: agar dilution MIC; format: cell-based
# Protocol: as §1
# C. rugosa = experiment: agar dilution MIC; format: cell-based; conditions: strain MY1022, yeast nitrogen base agar
# Protocol: as §1
# C. tropicalis = experiment: agar dilution MIC; format: cell-based; conditions: strain MY1012, yeast nitrogen base agar
# Protocol: as §1
# Candida pseudotropicalis = experiment: agar dilution MIC; format: cell-based; conditions: strain MY1100, yeast nitrogen base agar
# Protocol: as §1
# Cephalosporium sp. = experiment: agar dilution MIC; format: cell-based; conditions: strain MF4641, yeast nitrogen base agar
# Protocol: as §1
# Ceratocystis ulmi = experiment: agar dilution MIC; format: cell-based; conditions: strain MF4042, yeast nitrogen base agar
# Protocol: as §1
# Cercospora beticola = experiment: agar dilution MIC; format: cell-based; conditions: strain MF4608, yeast nitrogen base agar
# Protocol: as §1
# Cr. albidus = experiment: agar dilution MIC; format: cell-based; conditions: strain MY1070, yeast nitrogen base agar
# Protocol: as §1
# Cr. laurentii = experiment: agar dilution MIC; format: cell-based
# Protocol: as §1
# Cryptococcus neoformans = experiment: agar dilution MIC; format: cell-based
# Protocol: as §1
# [1] = system: Debaryomyces guilliermondi; experiment: agar dilution MIC; format: cell-based; conditions: strain MY321, yeast nitrogen base agar
# Protocol: as §1
# Fusarium oxysporium = experiment: agar dilution MIC; format: cell-based; conditions: strain MF4014, yeast nitrogen base agar
# Protocol: as §1
# Penicillium sp. = experiment: agar dilution MIC; format: cell-based
# Protocol: as §1
# Scopulariopsi communis = experiment: agar dilution MIC; format: cell-based; conditions: strain MF3769, yeast nitrogen base agar
# Protocol: as §1
# Trichoderma lignorum = experiment: agar dilution MIC; format: cell-based; conditions: strain MF3560, yeast nitrogen base agar
# Protocol: as §1
# Trichoderma sp. = experiment: agar dilution MIC; format: cell-based; conditions: strain MF4064, yeast nitrogen base agar
# Protocol: as §1
# Ustilago maydis = experiment: agar dilution MIC; format: cell-based; conditions: strain MF1996, yeast nitrogen base agar
# Protocol: as §1
# Verticillium serrae = experiment: agar dilution MIC; format: cell-based; conditions: strain MF3794, yeast nitrogen base agar
# Protocol: as §1
# [2] = system: filamentous fungi and yeast organisms; experiment: antifungal activity (summary statement); format: cell-based; conditions: in words
# Protocol: as §1
# bacteria = experiment: antibacterial activity (summary statement); format: cell-based; conditions: in words, no data shown
# [3] = solubility in organic solvents; format: physicochemical; conditions: organic solvents such as methanol, ethanol, dimethylformamide, dimethyl sulfoxide, ethyl acetate
compound,measurement,setting,value
CCCCCCC(C)CC(C)=CC(C=C(C)C=CC(O)C(C)(C)c1cc(O)c(C2OC(CO)CC(O)C2O)c(=O)o1)CO (centres unmarked) [Compound I],MIC,A. flavus,64 µg/mL
same,MIC,Aspergillus fumigatus,64 µg/mL
same,MIC,"Aspergillus niger; strain MF11, yeast nitrogen base agar",1.6 µg/mL
same,MIC,"Aspergillus niger; strain MF442, yeast nitrogen base agar",3.1 µg/mL
same,MIC,C. rugosa,25 µg/mL
same,MIC,C. tropicalis,25 µg/mL
same,MIC,Candida pseudotropicalis,25 µg/mL
same,MIC,Cephalosporium sp.,12.5 µg/mL
same,MIC,Ceratocystis ulmi,25 µg/mL
same,MIC,Cercospora beticola,4 µg/mL
same,MIC,Cr. albidus,8 µg/mL
same,MIC,"Cr. laurentii; strain MY1073, yeast nitrogen base agar",6.2 µg/mL
same,MIC,"Cr. laurentii; strain MY1074, yeast nitrogen base agar",8 µg/mL
same,MIC,"Cr. laurentii; strain MY1077, yeast nitrogen base agar",12.5 µg/mL
same,MIC,"Cryptococcus neoformans; strain MY1046, yeast nitrogen base agar",8 µg/mL
same,MIC,"Cryptococcus neoformans; strain MY1050, yeast nitrogen base agar",32 µg/mL
same,MIC,"Cryptococcus neoformans; strain MY1051, yeast nitrogen base agar",128 µg/mL
same,MIC,[1],6.2 µg/mL
same,MIC,Fusarium oxysporium,25 µg/mL
same,MIC,"Penicillium sp.; strain MF5014, yeast nitrogen base agar",3.1 µg/mL
same,MIC,"Penicillium sp.; strain MF5020, yeast nitrogen base agar",1.6 µg/mL
same,MIC,Scopulariopsi communis,6.2 µg/mL
same,MIC,Trichoderma lignorum,6.2 µg/mL
same,MIC,Trichoderma sp.,1.6 µg/mL
same,MIC,Ustilago maydis,8 µg/mL
same,MIC,Verticillium serrae,25 µg/mL
same,antifungal activity,[2],active against a moderately broad spectrum of filamentous fungi and yeast organisms; also recorded: excellent antifungal properties against many filamentous and many yeast organisms
same,antibacterial properties,bacteria,antibacterial properties
same,solubility,[3],soluble
